Measured values from article PMC5799307, “Creation of a long-acting nanoformulated dolutegravir” (Nature Communications, 2018).
pIC50: −log10 of the molar value. Read-outs that look alike come from different tables or passages of the source.

Columns and labels:
Assay type in all cases: cell-based
[1] = tested on: human monocyte-derived macrophages (MDM); conditions: 100 µM
Experimental: Human monocytes were obtained by leukapheresis from HIV-1/2 and hepatitis B seronegative donors, and then purified by counter-current centrifugal elutriation. Human monocytes were plated in a 12-well plate at a density of 1.0 × 10^6 cells per well using DMEM supplemented with 10% heat-inactivated pooled human serum, 1% glutamine, 10 µg/mL ciprofloxacin, and 50 µg/mL gentamicin. Cells were maintained at 37 °C in a 5% CO2 incubator. After 7 days of differentiation in the presence of 1000 U/mL recombinant human macrophage colony stimulating factor (MCSF), MDM were treated with 100 μM DTG, MDTG, NDTG, or NMDTG. Native drugs were added in DMSO (0.1% v/v). Uptake of drug was assessed by measurements of intracellular drug concentrations at 2, 4, 8, 12, 16, or 24 h after treatment. […] For both studies, adherent MDM were washed with PBS, then scraped into PBS, and counted at indicated time points using an Invitrogen Countess Automated Cell Counter (Carlsbad, CA). […] DTG and MDTG drug content was determined by UPLC-UV/Vis as described above. Release was assessed by collecting culture media after 4-h of drug treatment on days 1, 3, 5, 7, 10, 12, and 14. […] Supernatants were dried using a ThermoScientific Savant Speed Vacuum (Waltham, MA), extracted drug resuspended in 150 µL HPLC-grade methanol, and drug content was determined by UPLC-UV/Vis. […]

[2] = tested on: HIV-1ADA; assay: IC50 by HIV-1 RT activity in HIV-1ADA-infected MDM; conditions: Human immunodeficiency virus 1, 240 h, HIV-1ADA MOI 0.1, RT activity day 10
Experimental: (§1) Antiretroviral efficacy was determined by measurements of HIV reverse transcriptase (RT) activity. For IC50 determination, MDM were exposed to various concentrations (0.01–1000 nM) of DTG or MDTG for 1 h followed by challenge with HIV-1ADA[60] at a multiplicity of infection (MOI) of 0.1 infectious particles per cell for 4 h. Following viral challenge, cells were washed and incubated with the same concentration of drug used before infection for an additional 10 days in culture. Culture fluids were collected on day 10 for the measurement of RT activity as previously described[16],[62],[63]. To assess antiretroviral efficacy, MDM were treated with 100 μM DTG, MDTG, NDTG, or NMDTG as described above for 8 h. After treatment, cells were washed with PBS and cultured with fresh media, with half-media exchanges every other day. At 0, 4, 12 h, and 1, 5, 10, 15, 20, 25, or 30 days after treatment, cells were challenged with HIV-1ADA at an MOI of 0.1 infectious particles per cell for 16 h. After viral infection, the cells were cultured an additional 10 days with half-media exchanges every other day. Culture fluids were collected for measurement of RT activity as previously described[16],[62],[63]. Cells were fixed with 4% PFA and expression of HIV-1p24 antigen was determined by immunocytochemistry.

[3] = tested on: HIV-1ADA; assay: Antiretroviral efficacy in MDM challenged with HIV-1ADA after single 8-h treatment (RT activity, p24)
Experimental: as §1
For immunocytochemistry, cells were washed with PBS and fixed with 4% PFA at room temperature for 15 min, followed by an additional washing with PBS. The cells were treated with a blocking/permeabilizing solution (1% Triton X-100, 10% BSA in PBS) and incubated with mouse monoclonal antibody to HIV-1p24 (1:100) for 16 h at 4 °C. Cells were washed with PBS, and polymer-based HRP-conjugated anti-mouse secondary was added for 30 min at room temperature. Cells were then washed with PBS and developed with DAB. Nuclei were counterstained with Mayer’s hematoxylin, and cells were visualized with a ×20 objective on a Nikon Eclipse E800 microscope (Melville, NY) with Nuance EX multispectral imaging system (PerkinElmer, Hopkinton, MA)[16],[59].

Row | Structure (SMILES) | drug retained within MDM ([1]; 24 h) | pIC50 [2] | inhibition at 100 µM ([3]; Human immunodeficiency virus 1, single 8-h treatment, read-out: maximal inhibition of HIV-1 RT activity) | time after drug treatment for which efficacy was observed ([3]; single 8-h treatment, 100 µM) | maximum cellular drug level ([1]; 4 h) | inhibition at 100 µM ([3]; Human immunodeficiency virus 1, challenge at day 30 after drug loading, read-out: viral inhibition) | beginning of viral breakthrough ([3]; days after single 8-h treatment, 100 µM)
1 | C[C@@H]1CCO[C@H]2Cn3cc(C(=O)NCc4ccc(F)cc4F)c(=O)c(O)c3C(=O)N12 [DTG, dolutegravir] | < 0.1 µg/10^6 cells | 7.25 | 65% | up to 4 h |  |  | 
2 | CCCCCCCCCCCCCC(=O)Oc1c2n(cc(C(=O)NCc3ccc(F)cc3F)c1=O)C[C@@H]1OCC[C@@H](C)N1C2=O [MDTG] |  | 7.20 |  |  | 16.7 µg/10^6 cells | 83% | 20 days
